# Measurements taken from EP2368885A1, “Derivatives of phenazine useful to treat cancer” (Université de la Méditerranée (Aix-Marseille II), priority 2010, dated 2011).
# Test system: MiaPaCa-2 cells
# Assay: not given
# Details: not given
row,Molecule,Cytotoxicity (en %)
1,"2,3-dihydroxy-7,8-diamino(Boc)phenazine [compound 13]",30 >X> 25
2,"CCCCCCCCCCCCCCCC(=O)Oc1cc2nc3ccccc3nc2cc1OC(=O)CCCCCCCCCCCCCCC [compound 7, 2,3-diopalmitoylphenazine]",50 >X> 40
3,2-hydroxy-3-ethoxy-7-ethylcarboxyphenazine [compound 5],X>50%
4,"2,3-diethoxy-7-ethylcarboxyphenazine [compound 14]",20 > X > 10

# Test system: MiaPaCa-2 cells
# Assay: MTT colorimetric cytotoxicity assay on pancreatic chemoresistant cancer MiaPaCa-2 cells
# Details: 48 hours incubation, tested concentration not stated
row,Molecule,Cytotoxicity (en %)
1,"CCCCCCCCCCCCOc1cc2nc3cc(N)c(N)cc3nc2cc1OCCCCCCCCCCCC [compound 2, 2,3-didodecanoxy-7,8-diaminophenazine]",X>50%
2,"CCCCCCCCCCCCOc1cc2nc3ccccc3nc2cc1OCCCCCCCCCCCC [compound 3, 2,3-didodecanoxyphenazine]",X>50%
3,"CCCCCCCCCCCCOc1cc2nc3ccc(C(=O)O)cc3nc2cc1OCCCCCCCCCCCC [compound 1, 2,3-didodecanoxy-7-carboxyphenazine]",X>50%
4,"CCCCCCCCCCCCOc1cc2nc3ccc(C(=O)NCCN(C)C)cc3nc2cc1OCCCCCCCCCCCC [compound 4, 2,3-didodecanoxy-7-dimethylaminoethylcarbamoylphenazine]",X > 50%
